Patent US10619138B2, “Herbicide-resistant hydroxyphenylpyruvate dioxygenases” (BASF SE, priority 2013, dated 2020)
Where “and” joins values, the source holds several entries; their conditions need not be identical. Equal values may be shown once.

How the values were obtained:
[1] = biological target: T1, Arabidopsis HPPD (SEQ ID NO: 42) (Arabidopsis thaliana, UniProt P93836); experiment: In vitro HPPD activity assay (HGA by HPLC), wildtype enzyme characterization; type: biochemical; details: for TI (normalized tolerance index): normalized on Arabidopsis wild-type HPPD, reference enzyme
T1 construct: Arabidopsis (42); His tag; made in house; host or cells: E. coli BL21 (DE3)
T1 sequence (P93836 1-445): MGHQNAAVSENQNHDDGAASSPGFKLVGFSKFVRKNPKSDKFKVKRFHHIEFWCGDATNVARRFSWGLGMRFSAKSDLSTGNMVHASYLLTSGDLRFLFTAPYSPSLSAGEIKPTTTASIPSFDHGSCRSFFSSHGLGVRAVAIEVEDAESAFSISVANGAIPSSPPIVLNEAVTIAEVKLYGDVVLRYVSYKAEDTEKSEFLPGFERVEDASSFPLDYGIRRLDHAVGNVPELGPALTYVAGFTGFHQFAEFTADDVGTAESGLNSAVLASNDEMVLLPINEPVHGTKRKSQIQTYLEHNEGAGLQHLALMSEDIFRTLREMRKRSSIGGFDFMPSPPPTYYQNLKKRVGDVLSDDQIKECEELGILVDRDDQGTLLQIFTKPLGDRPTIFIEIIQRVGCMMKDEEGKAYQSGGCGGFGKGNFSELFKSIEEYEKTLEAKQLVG
Method: (§1) The activity assay for HPPD is based on the analysis of homogentisic acid by reversed phase HPLC.
(§2) The assay mixture can contain 150 mM potassium phosphate buffer pH 7.0, 50 mM L-ascorbic acid, 100 μM Catalase (Sigma-Aldrich), 1 μM FeSO4 and 0.2 units of purified HPPD enzyme in a total volume of 505 μl. 1 unit is defined as the amount of enzyme that is required to produce 1 nmol of HGA per minute at 20° C.
(§3) The reaction is allowed to proceed for 45 min at room temperature. The reaction is stopped by the addition of 50 μl of 4.5 M phosphoric acid. The sample is filtered using a […] pore size PVDF filtration device.
(§4) 5 μl of the cleared sample is analyzed on an UPLC HSS T3 column (particle size 1.8 μm, dimensions 2.1×50 mm; Waters) by isocratic elution using 90% 20 mM NaH2PO4 pH 2.2, 10% methanol (v/v).
(§5) HGA is detected electrochemically at 750 mV (mode: DC; polarity: positive) and quantified by integrating peak areas (Empower software; Waters).
Inhibitors are dissolved in DMSO (dimethylsulfoxide) to a concentration of 0.5 mM. From this stock solution serial five-fold dilutions are prepared in DMSO, which are used in the assay. The respective inhibitor solution accounts for 1% of the assay volume. […] Activities are normalized by setting the uninhibited enzyme activity to 100%. IC50 values are calculated using non-linear regression.
(§6) Using methods which are described in the above examples or well known in the art, purified, recombinant wildtype HPPD enzymes are characterized with respect to their kinetic properties and sensitivity towards HPPD inhibiting herbicides. Apparent michaelis constants (Km) and maximal reaction velocities (Vmax) are calculated by non-linear regression with the software GraphPad Prism 5 (GraphPad Software, La Jolla, USA) using a substrate inhibition model. […] Weighted means (by standard error) of Km and IC50 values are calculated from at least three independent experiments.
(§7) Field performance of the HPPD enzyme, which is used as a herbicide tolerance trait may depend not only on its lack of sensitivity towards HPPD inhibiting herbicides but also on its activity. To assess the potential performance of a herbicide tolerance trait a tolerance index (TI) is calculated using the following formula: […]
(§8) Easy comparison and ranking of each trait is enabled by normalizing tolerance indexes on Arabidopsis wild-type HPPD.

[2] = test system: Acidobacterium HPPD (SEQ ID NO: 30); experiment: In vitro HPPD activity assay, tolerance index; type: biochemical, Acidobacterium capsulatum; details: normalized on Arabidopsis wild-type HPPD
Method: as §1, §2, §3, §4, §5
(§9) Inhibitors are dissolved in DMSO (dimethylsulfoxide) to a concentration of 0.5 mM. From this stock solution serial five-fold dilutions are prepared in DMSO, which are used in the assay. The respective inhibitor solution accounts for 1% of the assay volume. Thus, final inhibitor concentrations range from 5 μM to 320 pM, respectively. Activities are normalized by setting the uninhibited enzyme activity to 100%. IC50 values are calculated using non-linear regression.
as §6, with “experiments. The Cheng-Prusoff equation for competitive inhibition (Cheng, Y. C.; Prusoff, W. H. Biochem Pharmacol 1973, 22, 3099-3108) is used to calculate dissociation constants (Ki).” for “experiments.”
as §7, §8

[3] = test system: Algoriphagus HPPD (SEQ ID NO: 22); experiment: In vitro HPPD activity assay, tolerance index; type: biochemical, Algoriphagus machipongonensis; details: normalized on Arabidopsis wild-type HPPD
Method: as §1, §2, §3, §4, §5, §9
as §6, with “experiments. The Cheng-Prusoff equation for competitive inhibition (Cheng, Y. C.; Prusoff, W. H. Biochem Pharmacol 1973, 22, 3099-3108) is used to calculate dissociation constants (Ki).” for “experiments.”
as §7, §8

[4] = test system: Mucilaginibacter HPPD (SEQ ID NO: 28); experiment: In vitro HPPD activity assay, tolerance index; type: biochemical, Mucilaginibacter paludis; details: normalized on Arabidopsis wild-type HPPD
Method: as §1, §2, §3, §4, §5, §9
as §6, with “experiments. The Cheng-Prusoff equation for competitive inhibition (Cheng, Y. C.; Prusoff, W. H. Biochem Pharmacol 1973, 22, 3099-3108) is used to calculate dissociation constants (Ki).” for “experiments.”
as §7, §8

[5] = test system: Microscilla HPPD (SEQ ID NO: 20); experiment: In vitro HPPD activity assay, tolerance index; type: biochemical, Microscilla marina; details: normalized on Arabidopsis wild-type HPPD
Method: as §1, §2, §3, §4, §5, §9
as §6, with “experiments. The Cheng-Prusoff equation for competitive inhibition (Cheng, Y. C.; Prusoff, W. H. Biochem Pharmacol 1973, 22, 3099-3108) is used to calculate dissociation constants (Ki).” for “experiments.”
as §7, §8

[6] = test system: Pontibacter HPPD (SEQ ID NO: 16); experiment: In vitro HPPD activity assay, tolerance index; type: biochemical, Pontibacter sp.; details: normalized on Arabidopsis wild-type HPPD
Method: as §1, §2, §3, §4, §5, §9
as §6, with “experiments. The Cheng-Prusoff equation for competitive inhibition (Cheng, Y. C.; Prusoff, W. H. Biochem Pharmacol 1973, 22, 3099-3108) is used to calculate dissociation constants (Ki).” for “experiments.”
as §7, §8

[7] = test system: untransformed wild-type (WT) Arabidopsis plants; experiment: Greenhouse herbicide spray test, wild-type plants; type: in vivo, Arabidopsis thaliana; details: two weeks after treatment, mean of three plants
Text: (§10) Additionally, T1 and T2 transgenic Arabidopsis plants can be tested for improved tolerance to HPPD-inhibiting herbicides in greenhouse studies. Herbicide injury scoring is done 2-3 weeks after treatment and is rated on a scale of 0 to 100%, 0% being no injury and 100% being complete death.
(§11) Transgenic Arabidopsis plants were sprayed with a range of doses from 1.56-50 g/ha with HPPD-inhibiting herbicides and injury evaluations were taken two weeks after treatment. […] As depicted in Table 6, control plants are severely injured by all doses of herbicide applied, with at least 70% of leaf material being damaged at the lowest application rate. For example, transgenic plants expressing Scenedesmus HPPD have an excellent tolerance to all herbidcides tested. […] After application of Inhibitor 2, only 18% of leaf material was damaged resulting in a 5-fold tolerance compared to the WT at the highest application rate.

[8] = test system: transgenic Arabidopsis plants expressing Acidobacterium HPPD; experiment: Greenhouse herbicide spray test, transgenic plants (T2); type: in vivo, Arabidopsis thaliana; details: two weeks after treatment
Text: as §10, §11

[9] = test system: transgenic Arabidopsis plants expressing Algoriphagus HPPD; experiment: as above; type: in vivo, Arabidopsis thaliana; details: two weeks after treatment
Text: as §10, §11

[10] = test system: transgenic Arabidopsis plants expressing Scenedesmus HPPD; experiment: as above; type: in vivo, Arabidopsis thaliana; details: two weeks after treatment
Text: as §10, §11

[11] = test system: Belliella HPPD (SEQ ID NO: 12); experiment: In vitro HPPD activity assay, tolerance index; type: biochemical, Belliella baltica; details: normalized on Arabidopsis wild-type HPPD
Method: as §1, §2, §3, §4, §5, §9
as §6, with “experiments. The Cheng-Prusoff equation for competitive inhibition (Cheng, Y. C.; Prusoff, W. H. Biochem Pharmacol 1973, 22, 3099-3108) is used to calculate dissociation constants (Ki).” for “experiments.”
as §7, §8

[12] = test system: Geodermatophilus HPPD (SEQ ID NO: 32); experiment: In vitro HPPD activity assay, tolerance index; type: biochemical, Geodermatophilus obscurus; details: normalized on Arabidopsis wild-type HPPD
Method: as §1, §2, §3, §4, §5, §9
as §6, with “experiments. The Cheng-Prusoff equation for competitive inhibition (Cheng, Y. C.; Prusoff, W. H. Biochem Pharmacol 1973, 22, 3099-3108) is used to calculate dissociation constants (Ki).” for “experiments.”
as §7, §8

[13] = test system: Herpetosiphon HPPD (SEQ ID NO: 26); experiment: In vitro HPPD activity assay, tolerance index; type: biochemical, Herpetosiphon aurantiacus; details: normalized on Arabidopsis wild-type HPPD
Method: as §1, §2, §3, §4, §5, §9
as §6, with “experiments. The Cheng-Prusoff equation for competitive inhibition (Cheng, Y. C.; Prusoff, W. H. Biochem Pharmacol 1973, 22, 3099-3108) is used to calculate dissociation constants (Ki).” for “experiments.”
as §7, §8

[14] = test system: Scenedesmus HPPD (SEQ ID NO: 4); experiment: In vitro HPPD activity assay, tolerance index; type: biochemical, Scenedesmus obliquus; details: normalized on Arabidopsis wild-type HPPD
Method: as §1, §2, §3, §4, §5, §9
as §6, with “experiments. The Cheng-Prusoff equation for competitive inhibition (Cheng, Y. C.; Prusoff, W. H. Biochem Pharmacol 1973, 22, 3099-3108) is used to calculate dissociation constants (Ki).” for “experiments.”
as §7, §8

Cc1c(C(=O)c2cnn(C)c2O)ccc(S(C)(=O)=O)c1C1=NOCC1 [Inhibitor 1, [3-(4,5-dihydroisoxazol-3-yl)-2-methyl-4-methylsulfonyl-phenyl]-(5-hydroxy-1-methyl-pyrazol-4-yl)methanone]
Ki [1]: 0.95 nM | TI (normalized tolerance index) [1]: 1 | TI (tolerance index) ([1]; not normalized): 0.95E−3 | TI (normalized tolerance index) [2]: 22 and 21.9 | TI (normalized tolerance index) [3]: 23.7 | TI (normalized tolerance index) [4]: 56.8 | TI (normalized tolerance index) [5]: 9.1 | TI (normalized tolerance index) [6]: 5.3 | Injury evaluation, scale 0-100% ([7]; 1.56 g/ha): 88% | Injury evaluation, scale 0-100% ([7]; 3.125 g/ha): 90% | Injury evaluation, scale 0-100% ([7]; 6.25 g/ha): 90% | Injury evaluation, scale 0-100% ([8]; Acidobacterium HPPD Event 1, 1.56 g/ha): 43% | Injury evaluation, scale 0-100% ([8]; Acidobacterium HPPD Event 1, 3.125 g/ha): 78% | Injury evaluation, scale 0-100% ([8]; Acidobacterium HPPD Event 1, 6.25 g/ha): 94% | Injury evaluation, scale 0-100% ([8]; Acidobacterium HPPD Event 2, 1.56 g/ha): 48% | Injury evaluation, scale 0-100% ([8]; Acidobacterium HPPD Event 2, 3.125 g/ha): 78% | Injury evaluation, scale 0-100% ([8]; Acidobacterium HPPD Event 2, 6.25 g/ha): 97% | Injury evaluation, scale 0-100% ([9]; Algoriphagus HPPD Event 1, 1.56 g/ha): 60% | Injury evaluation, scale 0-100% ([9]; Algoriphagus HPPD Event 1, 3.125 g/ha): 70% | Injury evaluation, scale 0-100% ([9]; Algoriphagus HPPD Event 1, 6.25 g/ha): 90% | Injury evaluation, scale 0-100% ([9]; Algoriphagus HPPD Event 2, 1.56 g/ha): 48% | Injury evaluation, scale 0-100% ([9]; Algoriphagus HPPD Event 2, 3.125 g/ha): 68% | Injury evaluation, scale 0-100% ([9]; Algoriphagus HPPD Event 2, 6.25 g/ha): 78% | Injury evaluation, scale 0-100% ([10]; Scenedesmus HPPD Event 1, 1.56 g/ha): 35% | Injury evaluation, scale 0-100% ([10]; Scenedesmus HPPD Event 1, 3.125 g/ha): 58% | Injury evaluation, scale 0-100% ([10]; Scenedesmus HPPD Event 1, 6.25 g/ha): 68% | Injury evaluation, scale 0-100% ([10]; Scenedesmus HPPD Event 2, 1.56 g/ha): 45% | Injury evaluation, scale 0-100% ([10]; Scenedesmus HPPD Event 2, 3.125 g/ha): 55% | Injury evaluation, scale 0-100% ([10]; Scenedesmus HPPD Event 2, 6.25 g/ha): 65%

CC(=O)N(C)c1c(Cl)ccc(C2=C(O)c3ncccc3C(C)(C)S2(=O)=O)c1Cl [Inhibitor 6, N-[2,6-dichloro-3-(8-hydroxy-5,5-dimethyl-6,6-dioxo-thiopyrano[4,3-b]pyridin-7-yl)phenyl]-N-methyl-acetamide]
TI (normalized tolerance index) [1]: 1 | TI (normalized tolerance index) [3]: 29.7 | TI (normalized tolerance index) [11]: 7.6 | TI (normalized tolerance index) [12]: 3.4 | TI (normalized tolerance index) [13]: 1.2 | TI (normalized tolerance index) [4]: 3.1 | TI (normalized tolerance index) [5]: 14.7 | TI (normalized tolerance index) [6]: 1.5 | TI (normalized tolerance index) [14]: 0.3

CC1=NOC(c2c(Cl)ccc(C3=C(O)c4ncccc4C(C)(C)S3(=O)=O)c2Cl)C1 (centres unmarked) [Inhibitor 7, 7-[2,4-dichloro-3-(3-methyl-4,5-dihydroisoxazol-5-yl)phenyl]-5,5-dimethyl-6,6-dioxo-thiopyrano[4,3-b]pyridin-8-ol]
TI (normalized tolerance index) [1]: 1 | TI (normalized tolerance index) [2]: 239 and 238.9 | TI (normalized tolerance index) [3]: 448 and 447.5 | TI (normalized tolerance index) [4]: 62.6 | TI (normalized tolerance index) [5]: 337.7 | TI (normalized tolerance index) [6]: 107.7
